The source of these data is the NIST ThermoML archive (doi:10.1021/je300692s).

This data set is described as follows: activity coefficient (dimensionless); of the first substance listed, at infinite dilution; xn = mol fraction of the nth substance listed. Particulars: 101 kPa, Liquid, Chromatography, x1 = 0.

± gives the expanded uncertainty stated by the source.

Regarding `CCOCC` [diethyl ether] + CCCCCCCCCC[N+]1(C)CCCC1.O=S(=O)([N-]S(=O)(=O)C(F)(F)F)C(F)(F)F, the activity coefficient by setting is: (322.6 K) 1.27 ± 0.13; (332.5 K) 1.25 ± 0.13; (342.8 K) 1.25 ± 0.13.
Consider `Cc1ccccc1` [toluene] + CCCCCCCCCC[N+]1(C)CCCC1.O=S(=O)([N-]S(=O)(=O)C(F)(F)F)C(F)(F)F, for which the activity coefficient is 0.77 ± 0.08 (322.6 K), 0.78 ± 0.08 (332.5 K) and 0.8 ± 0.08 (342.8 K).
With `ClC(Cl)Cl` [trichloromethane] + CCCCCC[N+]1(C)CCCC1.O=S(=O)([N-]S(=O)(=O)C(F)(F)F)C(F)(F)F, the activity coefficient by setting is: (322.9 K) 0.68 ± 0.07; (333 K) 0.72 ± 0.08; (343.1 K) 0.74 ± 0.08.
For the molecule `C[N+](=O)[O-]` [nitromethane] + CCCCCCCCCC[N+]1(C)CCCC1.O=S(=O)([N-]S(=O)(=O)C(F)(F)F)C(F)(F)F, the activity coefficient runs as follows: (322.6 K) 0.63 ± 0.07; (332.5 K) 0.62 ± 0.07; (342.8 K) 0.6 ± 0.06.
On to `CCOCC` [diethyl ether] + CCCCCCCC[N+]1(C)CCCC1.O=S(=O)([N-]S(=O)(=O)C(F)(F)F)C(F)(F)F, for which the activity coefficient came out at 1.34 ± 0.14 (323 K), 1.34 ± 0.14 (333 K) and 1.14 ± 0.12 (343.1 K).
Turning to `C#CCCCC` [1-hexyne] + CCCCCCCCCC[N+]1(C)CCCC1.O=S(=O)([N-]S(=O)(=O)C(F)(F)F)C(F)(F)F, the activity coefficient stood at 1.5 ± 0.16 (322.6 K), 1.48 ± 0.15 (332.5 K) and 1.47 ± 0.15 (342.8 K).
`CCCCCCCCCC` [decane] + CCCCCC[N+]1(C)CCCC1.O=S(=O)([N-]S(=O)(=O)C(F)(F)F)C(F)(F)F: the activity coefficient (322.9 K) was determined as 26 ± 2.7, the activity coefficient (333 K) was determined as 19 ± 2 and the activity coefficient (343.1 K) turned out to be 22.7 ± 2.4.
